Tests used:
blackgrass = assay: Test B pre/postemergence blackgrass; assay type: in vivo, Alopecurus myosuroides
Method in brief: (§1)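 Herbicidal effect was estimated by eye on a ten-point control scale after plants spent twelve to sixteen days in a greenhouse following soil or foliar treatment. Foliar sprays targeted plants at one to four leaves; all doses were formulated in a non-phytotoxic solvent with surfactant.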

velvetleaf = assay: Test B pre/postemergence velvetleaf; assay type: in vivo, Abutilon theophrasti
Method in brief: as §1

purple nutsedge = assay: Test B pre/postemergence purple nutsedge; assay type: in vivo, Cyperus rotundus
Method in brief: as §1

soybean = assay: Test B pre/postemergence soybean; assay type: in vivo, Glycine max
Method in brief: as §1

surinam grass = assay: Test B pre/postemergence surinam grass; assay type: in vivo, Brachiaria decumbens
Method in brief: as §1

morningglory = assay: Test B pre/postemergence morningglory; assay type: in vivo, Ipomoea hederacea
Method in brief: as §1

giant foxtail = assay: Test B pre/postemergence giant foxtail; assay type: in vivo, Setaria faberii
Method in brief: as §1

bedstraw = assay: Test B pre/postemergence bedstraw; assay type: in vivo, Galium aparine; conditions: Preemergence
Method in brief: as §1

corn = assay: Test B pre/postemergence corn; assay type: in vivo, Zea mays
Method in brief: as §1

duck salad = assay: Test B flood test duck salad; assay type: in vivo, Heteranthera limosa
Method in brief: (§2)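 Each value is a visual injury score relative to controls, with 10 meaning complete control and 0 no effect. Evaluation took place twelve to sixteen days after the 2-leaf-stage plants were treated and kept in the greenhouse.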

rape = assay: Test B pre/postemergence rape; assay type: in vivo, Brassica napus
Method in brief: as §1

bamyardgrass = assay: Test B flood test barnyardgrass; assay type: in vivo, Echinochloa crus-galli
Method in brief: as §2

rice = assay: Test B flood test rice; assay type: in vivo, Oryza sativa
Method in brief: as §2

pigweed = assay: Test B pre/postemergence pigweed; assay type: in vivo, Amaranthus retroflexus
Method in brief: as §1

smallflower flatsedge = assay: Test B flood test smallflower flatsedge; assay type: in vivo, Cyperus difformis
Method in brief: as §2

sugar beet = assay: Test B pre/postemergence sugar beet; assay type: in vivo, Beta vulgaris
Method in brief: as §1

[1] = Postemergence, Rate 31 g/ha, visual rating, scale 0 to 10 (0 no effect, 10 complete control)
[2] = Postemergence, Rate 125 g/ha, scale 0 to 10, 0 is no effect, 10 is complete control
[3] = Postemergence, Rate 250 g/ha, scale 0 to 10
[4] = Preemergence, Rate 31 g/ha, visual rating, scale 0 to 10 (0 no effect, 10 complete control)
[5] = Preemergence, Rate 62 g/ha, scale of 0 to 10 where 0 is no effect and 10 is complete control
[6] = Preemergence, Rate 125 g/ha, scale 0 to 10, 0 is no effect, 10 is complete control
[7] = Preemergence, Rate 250 g/ha, scale 0 to 10, 0 is no effect, 10 is complete control
[8] = Rate 62 g/ha, Postemergence, scale 0 to 10, 0 no effect, 10 complete control
[9] = Rate 31 g/ha, Pre-emergence section (flood test species), scale 0 to 10
[10] = Rate 62 g/ha, flood test species, Pre-emergence, visual evaluation after twelve to sixteen days
[11] = Rate 125 g/ha, under heading Pre-emergence, flood test species, visual evaluation after twelve to sixteen days
[12] = Rate 250 g/ha, Pre-emergence (flood test species), scale 0 to 10, 0 is no effect, 10 is complete control

CC(C)N(C(=O)n1oc(=O)n(CC[N+](=O)[O-])c1=O)c1ccc(Cl)cc1 [Compound 483]
0: Blackgrass plant response rating (blackgrass; [1]) | Blackgrass plant response rating (blackgrass; [2]) | Blackgrass plant response rating (blackgrass; [3]) | Blackgrass plant response rating (blackgrass; [4]) | Plant response rating, Blackgrass (blackgrass; [5]) | Blackgrass plant response rating (blackgrass; [6]) | Blackgrass plant response rating (blackgrass; [7]) | Blackgrass plant response rating (blackgrass; [8]) | Velvetleaf plant response rating (velvetleaf; [1]) | Velvetleaf plant response rating (velvetleaf; [2]) | Velvetleaf plant response rating (velvetleaf; [3]) | Plant response rating, Velvetleaf (velvetleaf; [5]) | Velvetleaf plant response rating (velvetleaf; [6]) | Velvetleaf plant response rating (velvetleaf; [7]) | Velvetleaf plant response rating (velvetleaf; [8]) | Nutsedge plant response rating (purple nutsedge; [1]) | Nutsedge plant response rating (purple nutsedge; [2]) | Nutsedge plant response rating (purple nutsedge; [3]) | Plant response rating, Nutsedge (purple nutsedge; [5]) | Nutsedge plant response rating (purple nutsedge; [6]) | Nutsedge plant response rating (purple nutsedge; [7]) | Nutsedge plant response rating (purple nutsedge; [8]) | Soybean plant response rating (soybean; [1]) | Soybean plant response rating (soybean; [2]) | Soybean plant response rating (soybean; [3]) | Plant response rating, Soybean (soybean; [5]) | Soybean plant response rating (soybean; [6]) | Soybean plant response rating (soybean; [7]) | Soybean plant response rating (soybean; [8]) | B. signalgrass plant response rating (surinam grass; [1]) | B. signalgrass plant response rating (surinam grass; [2]) | B. signalgrass plant response rating (surinam grass; Postemergence, Rate 250 g/ha, scale 0 to 10, 0 no effect, 10 complete control) | B. signalgrass plant response rating (surinam grass; [4]) | Plant response rating, B. signalgrass (surinam grass; [5]) | B. signalgrass plant response rating (surinam grass; [6]) | B. signalgrass plant response rating (surinam grass; [7]) | B. signalgrass plant response rating (surinam grass; [8]) | Morningglory plant response rating (morningglory; [1]) | Morningglory plant response rating (morningglory; [2]) | Morningglory plant response rating (morningglory; [3]) | Plant response rating, Morningglory (morningglory; [5]) | Morningglory plant response rating (morningglory; [6]) | Morningglory plant response rating (morningglory; [7]) | Morningglory plant response rating (morningglory; [8]) | Giant foxtail plant response rating (giant foxtail; [1]) | Giant foxtail plant response rating (giant foxtail; [2]) | Giant foxtail plant response rating (giant foxtail; [3]) | Giant foxtail plant response rating (giant foxtail; [4]) | Plant response rating, Giant foxtail (giant foxtail; [5]) | Giant foxtail plant response rating (giant foxtail; [6]) | Giant foxtail plant response rating (giant foxtail; [7]) | Giant foxtail plant response rating (giant foxtail; [8]) | Bedstraw plant response rating (bedstraw; Rate 31 g/ha, visual rating, scale 0 to 10 (0 no effect, 10 complete control)) | Plant response rating, Bedstraw (bedstraw; Rate 62 g/ha, scale of 0 to 10 where 0 is no effect and 10 is complete control) | Bedstraw plant response rating (bedstraw; Rate 125 g/ha, scale 0 to 10, 0 is no effect, 10 is complete control) | Bedstraw plant response rating (bedstraw; Rate 250 g/ha, scale 0 to 10, 0 is no effect, 10 is complete control) | Corn plant response rating (corn; [1]) | Corn plant response rating (corn; [2]) | Corn plant response rating (corn; [3]) | Corn plant response rating (corn; [4]) | Plant response rating, Corn (corn; [5]) | Corn plant response rating (corn; [6]) | Corn plant response rating (corn; [7]) | Corn plant response rating (corn; [8]) | Ducksalad plant response rating (duck salad; [9]) | Plant response rating, Ducksalad (0 to 10 scale, 0 is no effect, 10 is complete control) (duck salad; [10]) | Ducksalad plant response rating (0 to 10 scale, 0 is no effect, 10 is complete control) (duck salad; [11]) | Ducksalad plant response rating (duck salad; [12]) | Rape plant response rating (rape; [1]) | Rape plant response rating (rape; [2]) | Rape plant response rating (rape; [3]) | Plant response rating, Rape (rape; [5]) | Rape plant response rating (rape; [6]) | Rape plant response rating (rape; [7]) | Rape plant response rating (rape; [8]) | Barnyardgrass plant response rating (bamyardgrass; [9]) | Plant response rating, Barnyardgrass (0 to 10 scale, 0 is no effect, 10 is complete control) (bamyardgrass; [10]) | Barnyardgrass plant response rating (0 to 10 scale, 0 is no effect, 10 is complete control) (bamyardgrass; [11]) | Barnyardgrass plant response rating (bamyardgrass; [12]) | Rice plant response rating (rice; [9]) | Plant response rating, Rice (0 to 10 scale, 0 is no effect, 10 is complete control) (rice; [10]) | Rice plant response rating (0 to 10 scale, 0 is no effect, 10 is complete control) (rice; [11]) | Rice plant response rating (rice; [12]) | Redroot pigweed plant response rating (pigweed; [1]) | Redroot pigweed plant response rating (pigweed; [2]) | Redroot pigweed plant response rating (pigweed; [3]) | Plant response rating, Redroot pigweed (pigweed; [5]) | Redroot pigweed plant response rating (pigweed; [6]) | Redroot pigweed plant response rating (pigweed; [7]) | Redroot pigweed plant response rating (pigweed; [8]) | S. Flatsedge plant response rating (smallflower flatsedge; [9]) | Plant response rating, S. Flatsedge (0 to 10 scale, 0 is no effect, 10 is complete control) (smallflower flatsedge; [10]) | S. Flatsedge plant response rating (0 to 10 scale, 0 is no effect, 10 is complete control) (smallflower flatsedge; [11]) | S. Flatsedge plant response rating (smallflower flatsedge; [12]) | Sugarbeets plant response rating (sugar beet; [1]) | Sugarbeets plant response rating (sugar beet; [2]) | Sugarbeets plant response rating (sugar beet; [3]) | Plant response rating, Sugarbeets (sugar beet; [5]) | Sugarbeets plant response rating (sugar beet; [6]) | Sugarbeets plant response rating (sugar beet; [7]) | Sugarbeets plant response rating (sugar beet; [8])
